Assay results reported in ChEMBL document CHEMBL1201862, “PubChem BioAssay data set” (2004).
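How tested: cells in 96-well plates exposed to compound for 48 hours at five concentrations. Here, GI50 denotes the concentration required for 50% inhibition of growth.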 Activity calls are given as the source filed them. No stated cut-off is given here; in the data, active = GI50 up to about 1.1 µM and inactive = higher.

Columns and labels:
Test in all cases: NCI-60 cell line screen, 48 h
786-0 = test system: 786-0
A498 = test system: A498
A549 = test system: A549
ACHN = test system: ACHN
BT-549 = test system: BT-549
CAKI-1 = test system: CAKI-1
CCRF-CEM = test system: CCRF-CEM
COLO 205 = test system: COLO 205
DU-145 = test system: DU-145
EKVX = test system: EKVX
HCC 2998 = test system: HCC 2998
HCT-116 = test system: HCT-116
HCT-15 = test system: HCT-15
HL-60 = test system: HL-60
HOP-62 = test system: HOP-62
HOP-92 = test system: HOP-92
HT-29 = test system: HT-29
Hs-578T = test system: Hs-578T
IGROV-1 = test system: IGROV-1
K562 = test system: K562
KM12 = test system: KM12
LOX IMVI = test system: LOX IMVI
M14 = test system: M14
MCF7 = test system: MCF7
MDA-MB-231 = test system: MDA-MB-231
MDA-MB-435 = test system: MDA-MB-435
MDA-N = test system: MDA-N
MOLT-4 = test system: MOLT-4
Malme-3M = test system: Malme-3M
NCI-H226 = test system: NCI-H226
NCI-H23 = test system: NCI-H23
NCI-H460 = test system: NCI-H460
NCI-H522 = test system: NCI-H522
NCI/ADR-RES = test system: NCI/ADR-RES
OVCAR-3 = test system: OVCAR-3
OVCAR-4 = test system: OVCAR-4
OVCAR-5 = test system: OVCAR-5
OVCAR-8 = test system: OVCAR-8
PC-3 = test system: PC-3
RPMI-8226 = test system: RPMI-8226
RXF 393 = test system: RXF 393
SF-268 = test system: SF-268
SF-295 = test system: SF-295
SF-539 = test system: SF-539
SK-MEL-28 = test system: SK-MEL-28
SK-MEL-2 = test system: SK-MEL-2
SK-MEL-5 = test system: SK-MEL-5
SK-OV-3 = test system: SK-OV-3
SN12C = test system: SN12C
SNB-19 = test system: SNB-19
SNB-75 = test system: SNB-75
SR = test system: SR
SW-620 = test system: SW-620
T47D = test system: T47D
TK-10 = test system: TK-10
U-251 = test system: U-251
UACC-257 = test system: UACC-257
UACC-62 = test system: UACC-62
UO-31 = test system: UO-31
DMS-114 = test system: DMS-114
KM-20L2 = test system: KM-20L2
LXFL 529 = test system: LXFL 529
SNB-78 = test system: SNB-78

In the case of `CCOc1cc2oc(C)cc(=O)c2c(OC)c1/C=N/c1ccc(Cn2c(C)nc3ccccc32)cc1`, the GI50 (786-0) is reported as > 100 µM (inactive), the GI50 (A498) is reported as > 100 µM (inactive) and the GI50 (A549) is reported as > 100 µM (inactive). The GI50 (ACHN) was > 100 µM (inactive), the GI50 (BT-549) was > 100 µM (inactive) and the GI50 (CAKI-1) was > 100 µM (inactive). For the same compound, the GI50 (CCRF-CEM) was > 100 µM (inactive), the GI50 (COLO 205) was > 100 µM (inactive) and the GI50 (DU-145) was > 100 µM (inactive). The GI50 (EKVX) was > 100 µM (inactive), the GI50 (HCC 2998) was > 100 µM (inactive) and the GI50 (HCT-116) was > 100 µM (inactive). For the same compound, the GI50 (HCT-15) was > 100 µM, the GI50 (HL-60) was > 100 µM (inactive) and the GI50 (HOP-62) was > 100 µM (inactive). For the same compound, the GI50 (HOP-92) was > 100 µM (inactive), the GI50 (HT-29) was > 100 µM (inactive) and the GI50 (Hs-578T) was > 100 µM (inactive). The GI50 (IGROV-1) was > 100 µM (inactive), the GI50 (K562) was > 100 µM (inactive) and the GI50 (KM12) was > 100 µM (inactive). The GI50 (LOX IMVI) was > 100 µM (inactive), the GI50 (M14) was > 100 µM (inactive) and the GI50 (MCF7) was > 100 µM (inactive). For the same compound, the GI50 (MDA-MB-231) was > 100 µM (inactive), the GI50 (MDA-MB-435) was > 100 µM (inactive) and the GI50 (MDA-N) was > 100 µM (inactive). For the same compound, the GI50 (MOLT-4) was > 100 µM (inactive), the GI50 (Malme-3M) was > 100 µM (inactive) and the GI50 (NCI-H226) was > 100 µM (inactive). The GI50 (NCI-H23) was > 100 µM (inactive), the GI50 (NCI-H460) was > 100 µM (inactive) and the GI50 (NCI-H522) was > 100 µM (inactive). The GI50 (NCI/ADR-RES) was > 100 µM (inactive), the GI50 (OVCAR-3) was > 100 µM (inactive) and the GI50 (OVCAR-4) was > 100 µM (inactive). The GI50 (OVCAR-5) was > 100 µM (inactive), the GI50 (OVCAR-8) was > 100 µM (inactive) and the GI50 (PC-3) was > 100 µM (inactive). The GI50 (RPMI-8226) was > 100 µM (inactive), the GI50 (RXF 393) was > 100 µM (inactive) and the GI50 (SF-268) was > 100 µM (inactive). The GI50 (SF-295) was > 100 µM (inactive), the GI50 (SF-539) was > 100 µM (inactive) and the GI50 (SK-MEL-28) was > 100 µM (inactive). The GI50 (SK-MEL-2) was > 100 µM (inactive), the GI50 (SK-MEL-5) was > 100 µM (inactive) and the GI50 (SK-OV-3) was > 100 µM (inactive). The GI50 (SN12C) was > 100 µM (inactive), the GI50 (SNB-19) was > 100 µM (inactive) and the GI50 (SNB-75) was > 100 µM (inactive). The GI50 (SR) was > 100 µM (inactive), the GI50 (SW-620) was > 100 µM (inactive) and the GI50 (T47D) was > 100 µM (inactive). The GI50 (TK-10) was > 100 µM (inactive), the GI50 (U-251) was > 100 µM (inactive) and the GI50 (UACC-257) was > 100 µM (inactive). The GI50 (UACC-62) was > 100 µM (inactive) and the GI50 (UO-31) was > 100 µM (inactive).
`CC(=O)c1cccc2c1CC1(C2)Cc2ccc3c(c2C1=O)CCC3` (stereo not drawn) was tested, and the GI50 (786-0) was 41.2 µM (inactive), the GI50 (A498) was > 100 µM (inactive) and the GI50 (A549) was 23.3 µM (inactive). For the same compound, the GI50 (ACHN) was 47.9 µM (inactive), the GI50 (BT-549) was 82.2 µM (inactive) and the GI50 (CAKI-1) was 48 µM (inactive). The GI50 (CCRF-CEM) was 34.8 µM (inactive), the GI50 (COLO 205) was 26.5 µM (inactive) and the GI50 (DU-145) was 79.1 µM (inactive). For the same compound, the GI50 (EKVX) was 17.9 µM (inactive), the GI50 (HCC 2998) was 15 µM (inactive) and the GI50 (HCT-116) was 27.7 µM (inactive). The GI50 (HCT-15) was 33.6 µM, the GI50 (HL-60) was 3.64 µM (inactive) and the GI50 (HOP-62) was 54 µM (inactive). The GI50 (HOP-92) was 12.6 µM (inactive), the GI50 (HT-29) was 23.1 µM (inactive) and the GI50 (Hs-578T) was 32.7 µM (inactive). For the same compound, the GI50 (IGROV-1) was 74 µM (inactive), the GI50 (K562) was 21.6 µM (inactive) and the GI50 (KM12) was 29.6 µM (inactive). The GI50 (LOX IMVI) was 27.5 µM (inactive), the GI50 (M14) was 46.7 µM (inactive) and the GI50 (MCF7) was 9.57 µM (inactive). The GI50 (MDA-MB-231) was 32.6 µM (inactive), the GI50 (MDA-MB-435) was 32.1 µM (inactive) and the GI50 (MDA-N) was 49.1 µM (inactive). For the same compound, the GI50 (MOLT-4) was 25.3 µM (inactive), the GI50 (Malme-3M) was 14.3 µM (inactive) and the GI50 (NCI-H226) was 23.9 µM (inactive). For the same compound, the GI50 (NCI-H23) was 67.8 µM (inactive), the GI50 (NCI-H460) was 33.3 µM (inactive) and the GI50 (NCI-H522) was 17 µM (inactive). The GI50 (NCI/ADR-RES) was 12.7 µM (inactive), the GI50 (OVCAR-3) was 23.5 µM (inactive) and the GI50 (OVCAR-4) was 29.5 µM (inactive). For the same compound, the GI50 (OVCAR-5) was 53.6 µM (inactive), the GI50 (OVCAR-8) was 57.1 µM (inactive) and the GI50 (PC-3) was 32.5 µM (inactive). For the same compound, the GI50 (RPMI-8226) was 17.3 µM (inactive), the GI50 (RXF 393) was 33 µM (inactive) and the GI50 (SF-268) was 40.7 µM (inactive). For the same compound, the GI50 (SF-295) was 43.2 µM (inactive), the GI50 (SF-539) was 82.2 µM (inactive) and the GI50 (SK-MEL-28) was 42.1 µM (inactive). The GI50 (SK-MEL-2) was 26.2 µM (inactive), the GI50 (SK-MEL-5) was 14 µM (inactive) and the GI50 (SK-OV-3) was 83.6 µM (inactive). For the same compound, the GI50 (SN12C) was 35.8 µM (inactive), the GI50 (SNB-19) was > 100 µM (inactive) and the GI50 (SNB-75) was 35.9 µM (inactive). The GI50 (SR) was 14.8 µM (inactive), the GI50 (SW-620) was 55.2 µM (inactive) and the GI50 (T47D) was 29.1 µM (inactive). The GI50 (TK-10) was 24.2 µM (inactive), the GI50 (U-251) was 47.1 µM (inactive) and the GI50 (UACC-257) was 14.8 µM (inactive). The GI50 (UACC-62) was 78.5 µM (inactive) and the GI50 (UO-31) was 30.3 µM (inactive).
In the case of `Cc1ccccc1C(=O)C1CCCCC1O` (stereo not drawn), the GI50 (786-0) is reported as > 100 µM (inactive), the GI50 (A549) is reported as > 100 µM (inactive) and the GI50 (ACHN) is reported as > 100 µM (inactive). For the same compound, the GI50 (CAKI-1) was > 100 µM (inactive), the GI50 (DMS-114) was > 100 µM (inactive) and the GI50 (EKVX) was > 100 µM (inactive). For the same compound, the GI50 (HCC 2998) was > 100 µM (inactive), the GI50 (HCT-116) was > 100 µM (inactive) and the GI50 (HCT-15) was > 100 µM. The GI50 (HL-60) was > 100 µM (inactive), the GI50 (HOP-62) was > 100 µM (inactive) and the GI50 (HOP-92) was > 100 µM (inactive). The GI50 (IGROV-1) was > 100 µM (inactive), the GI50 (K562) was > 100 µM (inactive) and the GI50 (KM-20L2) was > 100 µM (inactive). For the same compound, the GI50 (KM12) was > 100 µM (inactive), the GI50 (LOX IMVI) was > 100 µM (inactive) and the GI50 (LXFL 529) was > 100 µM (inactive). For the same compound, the GI50 (M14) was > 100 µM (inactive), the GI50 (MOLT-4) was > 100 µM (inactive) and the GI50 (Malme-3M) was > 100 µM (inactive). The GI50 (NCI-H226) was > 100 µM (inactive), the GI50 (NCI-H23) was > 100 µM (inactive) and the GI50 (OVCAR-3) was > 100 µM (inactive). For the same compound, the GI50 (OVCAR-4) was > 100 µM (inactive), the GI50 (OVCAR-5) was > 100 µM (inactive) and the GI50 (RXF 393) was > 100 µM (inactive). For the same compound, the GI50 (SF-268) was > 100 µM (inactive), the GI50 (SK-MEL-2) was > 100 µM (inactive) and the GI50 (SK-MEL-5) was > 100 µM (inactive). For the same compound, the GI50 (SK-OV-3) was > 100 µM (inactive), the GI50 (SN12C) was > 100 µM (inactive) and the GI50 (SNB-19) was > 100 µM (inactive). For the same compound, the GI50 (SNB-75) was > 100 µM (inactive), the GI50 (SNB-78) was 23.8 µM (inactive) and the GI50 (SW-620) was > 100 µM (inactive). The GI50 (TK-10) was > 100 µM (inactive), the GI50 (U-251) was > 100 µM (inactive) and the GI50 (UACC-62) was > 100 µM (inactive). The GI50 (UO-31) was > 100 µM (inactive).
